According to patent US7718640B2, “Methods and pharmaceutical compositions for reliable achievement of acceptable serum testosterone levels” (Bayer-Schering Pharma AG, priority 2003, dated 2010):

Tests used:
[1] = Long-term efficacy and safety study of intramuscular TU 1000 mg in hypogonadal men (Example 2); format: in vivo; settings: 4 TU doses of 1000 mg i.m. per year (12-week intervals), 4 ml castor oil:benzyl benzoate 1:1.7
Experimental: The therapeutic efficacy and safety of a formulation containing testosterone undecanoate 1000 mg in a vehicle of 4 ml of a mixture of castor oil and benzyl benzoate in a ratio of 1:1.7 by volume has been investigated in hypogonadal men. The formulation (4 mL, 1000 mg of testosterone undecanoate) was injected intramuscularly to the hypogonadal men according to the following scheme: • initial phase comprising 4 injections of the formulation with intervals of 6 weeks between the injections. • maintenance phase comprising injecting the formulation in intervals of 10 or 12 weeks between injections.
The present study relates to a one-arm study examining the efficacy and safety of long-term intramuscular injection of testosterone undecanoate for the treatment of symptoms of hypogonadism in men. The patients received 4 testosterone undecanoate injections of 1000 mg the first three times of injections with an interval of 6 weeks, the 4th injection and subsequent injections with 12-week intervals.

[2] = Pharmacokinetic profile: total serum testosterone after intramuscular TU in hypogonadal men (Example 3, FIG. 1); format: in vivo
Experimental: See Example 3 for the injection scheme. […] The filled lines show the continued injection of 1000-mg TU with an interval of 12 weeks between injections.
The pharmacokinetic profile of a formulation containing testosterone undecanoate (TU) 1000 mg in a vehicle of 4 ml of a mixture of castor oil and benzyl benzoate in a ratio of 1:1.7 by volume was tested in hypogonadal men (having testosterone levels in serum of less than 10 nmol/l). An initial phase of two first intramuscularly injections of 1000 mg TU with 6-weeks interval between the two injections, followed by a maintenance phase of subsequent 3 intramuscularly injections of 1000 mg TU separated by an interval of 10 weeks between each of the injections. Then 1000 mg of testosterone undecanoate (TU) was intramuscularly injected every 12 weeks. 5 treatment periods were provided with an interval of 12 weeks between each injection.

[3] = Comparison of initial phases with 6 versus 10 weeks between injections; serum testosterone (total) before each additional injection (Example 4); format: in vivo, men; settings: for Mean testosterone level (total) in serum after 1st injection / Mean testosterone level (total) in serum after 2nd injection: 6 men
Experimental: The pharmacokinetic profile of a formulation containing testosterone undecanoate (TU)1000 mg in a vehicle of 4 ml of a mixture of castor oil and benzyl benzoate in a ratio of 1:1.7 by volume was tested using two different regimens in hypogonadal men.
In regimen A, an initial phase of two first intramuscularly injections of 1000 mg TU with mean of 9.2-weeks (64.4 days) interval between the two injections, followed by a maintenance phase of subsequent intramuscularly injections of 1000 mg TU separated by an interval of a mean of 10.2 weeks ([…]) after second injection.
In regimen B, an initial phase of two first intramuscularly injections of 1000 mg TU with mean of 6.1-weeks (42.5 days) interval between the first two injections, followed by a maintenance phase of subsequent intramuscularly injections of 1000 mg TU separated by an interval of mean of 10.1 weeks (70.5 days) after second injections.
The concentration of testosterone (total) was determined in serum before each additional injection of TU.

Substance: 17β-hydroxyandrost-4-en-3-one undecanoate [TU]
- restoration of physiological serum T levels [1]: sufficient to restore physiological serum T levels in all 36 patients over most of the measurement times
- minimum testosterone levels (total levels) after 12 weeks ([2]; 12 weeks after injection of 1000 mg TU i.m., maintenance phase): ≥ 10 nmol
- minimum testosterone levels for a treatment period of 14 weeks ([2]; 14 weeks, upon extrapolating the serum levels of testosterone, lowest acceptable concentration about 10 nmol): The same was shown to apply
- serum testosterone levels throughout the entire period between injections ([2]; first injection interval 6 weeks, subsequent injections at 10 or 12 week intervals): 10 to 35 nmol/L
- maximal and minimal testosterone levels (total levels) in serum ([2]; hypogonadal men, 1000 mg TU i.m. in 4 ml castor oil:benzyl benzoate 1:1.7, 2 injections 6 weeks apart, then 3 at 10-week, then 12-week intervals): within the physiological acceptable range
- accumulation of testosterone over time ([2]; same scheme as Example 3, 1000 mg TU i.m.): no accumulation of testosterone is seen over time
- Mean testosterone level (total) in serum after 1st injection ([3]; Regime A, mean 9.2 weeks after 1st injection of 1000 mg TU i.m.): 7.0 nmol/L
- Mean testosterone level (total) in serum after 2nd injection ([3]; Regime A, mean 10.8 weeks after 2nd injection of 1000 mg TU i.m.): 8.8 nmol/L
- Mean testosterone level (total) in serum after 1st injection ([3]; Regime B, mean 6.1 weeks after 1st injection of 1000 mg TU i.m.): 12.2 nmol/L
- Mean testosterone level (total) in serum after 2nd injection ([3]; Regime B, mean 10.1 weeks after 2nd injection of 1000 mg TU i.m.): 12.5 nmol/L
- sufficiency of testosterone levels over the entire period up to the following injection ([3]; Regimen A: long-term intervals in both initial and maintenance phase): do not result in the sufficient levels of testosterone above 10 nmol
- testosterone levels over the period between injections ([3]; Regimen B: interval in the initial phase decreased to 6 weeks): above 10 nmol/l
